The values that follow are results of earlier work, collected in patent publication US20100209495A1, “GRANULATES, PROCESS FOR PREPARING THEM AND PHARMACEUTICAL PRODUCTS CONTAINING THEM” (Mylan Laboratories, Inc., priority 2008, published 2010).

For this series the following is noted: at 37° C.

As for `CC(O)(CS(=O)(=O)c1ccc(F)cc1)C(=O)Nc1ccc(C#N)c(C(F)(F)F)c1` (stereo not shown) [bicalutamide, N-[4-cyano-3-(trifluoromethyl)phenyl]-3-(4-fluorophenyl) sulfonyl-2-hydroxy-2-methyl-propanamide], the water solubility is 5 mg/1000 ml.
